Where a name gives a salt, the structure may show the parent alone.
What was measured:
[1] = biological target: T1, guinea pig trachea (contractions caused by U46619) (Cavia porcellus, UniProt A0A286Y4I8); assay: pA2 on guinea pig trachea (U46619-induced contraction); type: cell-based; conditions: guinea pig tracheal rings; U46619 10^-9 M to 10^-5 M; antagonist contact 20 minutes
T1 sequence (A0A286Y4I8 1-347): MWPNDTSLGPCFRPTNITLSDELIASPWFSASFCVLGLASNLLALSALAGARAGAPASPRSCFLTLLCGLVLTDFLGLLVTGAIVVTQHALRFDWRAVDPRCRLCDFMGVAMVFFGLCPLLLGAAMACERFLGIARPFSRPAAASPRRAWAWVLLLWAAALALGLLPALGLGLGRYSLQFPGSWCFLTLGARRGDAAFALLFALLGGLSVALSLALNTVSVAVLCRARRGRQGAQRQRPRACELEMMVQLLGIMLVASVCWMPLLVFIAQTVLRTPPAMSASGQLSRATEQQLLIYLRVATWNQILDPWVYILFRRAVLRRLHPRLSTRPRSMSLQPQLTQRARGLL

[2] = system: Dog platelets (aggregation induced by U46619+adrenaline); assay: Platelet aggregation in dogs (U46619 + adrenaline, PRP); type: cell-based; conditions: Canis lupus familiaris, adrenaline 10 μM then U46619 1.2 μM, 3 min preincubation, 37° C., read-out: IC50 (50% inhibition of the aggregation responses to U46619+adrenaline)
Method: Platelet Aggregation in Dogs
After anesthesia of the animal with pentobarbital sodium (30 mg/kg i.v.), arterial blood is withdrawn onto sodium citrate (0.109M) (1 vol. of citrate per 9 vol. of blood). Platelet-rich plasma (PRP) is obtained after centrifugation (20° C.) at 200 g for 10 minutes. The number of platelets in the PRP is 300,000 PL/mm^3 on average. The PRP is stored at the temperature of the room until the time of the test, and is used within 4 hours following withdrawal from the animal.
Dog platelets respond weakly to U46619 alone. […] The PRP is incubated at 37° C. in the presence of the test antagonist for 3 minutes. Aggregation is then obtained by the addition of adrenaline (10 μM) followed by that of U46619 (1.2 μM) 30 seconds later. The effect of the antagonists is measured, and the IC50 is determined as the concentration of the antagonist needed to produce a 50% inhibition of the aggregation responses to U46619+adrenaline.

[3] = system: tracheal pressure in guinea pigs (bronchoconstriction caused by U46619); assay: IC50 on tracheal pressure in guinea pigs (U46619-induced bronchoconstriction); type: in vivo, guinea pig; conditions: Cavia porcellus, iv, 5 min; anesthetized guinea pigs; U46619 2 μg/kg i.v.; antagonist injected 5 minutes before U46619; read-out: IC50 (dose of antagonist that inhibits by 50% the increase in tracheal pressure caused by U46619)
Source text: ICso on Tracheal Pressure in Guinea Pigs
Male albino guinea pigs (350-400 g) subjected to an 18-hour water diet are anesthetized with ethyl carbamate (1.25 g/kg i.p.). A catheter is introduced into the carotid artery in order to measure the arterial blood pressure by means of a pressure cell. A second catheter is introduced into the jugular vein and is used to inject the pharmacological substances. The trachea is cannulated and the guinea pig is placed in assisted respiration by means of a respirator. The animal's temperature is maintained at 37° C. using a thermostatic blanket. A needle pushed in the tracheal cannula is connected to a pressure cell and enables the tracheal pressure to be recorded.
The guinea pigs are pretreated with d-tubocurarine (1 mg/kg i.v.) and with indomethacin (10 mg/kg i.v.). When injected at a dose of 2 μg/kg i.v., U46619 causes a bronchoconstriction which leads to an increase in tracheal pressure and induces an increase in arterial blood pressure. The responses to U46619 are reversible and reproducible if the injections are carried out every 10 minutes.
The thromboxane receptor antagonists are injected 5 minutes before the injections of U46619. The dose of antagonist that inhibits by 50% the increase in tracheal pressure caused by U46619 is determined (IC50).

[4] = system: platelets (aggregation induced by U46619, a TXA2 receptor agonist); assay: Platelet aggregation in rabbits (U46619-induced, PRP); type: cell-based; conditions: Oryctolagus cuniculus, 0.05 h, rabbit PRP, U46619 1.2 μM, antagonist 3 min before agonist, 37° C., read-out: IC50 (50% inhibition of the aggregation response induced by U46619)
Method: Platelet Aggregation in Rabbits
Rabbits (2-3 kg) are anesthetized with pentobarbital sodium (30 mg/kg i.v.). After cannulation of the left carotid artery, blood is withdrawn onto sodium citrate (0.109M) (1 vol. of citrate per 9 vol. of blood). Platelet-rich plasma (PRP) is obtained by centrifugation (20° C.) at 250 g for 20 minutes, and platelet-poor plasma (PPP) by centrifugation at 1000 g (10 min). The number of platelets (PL) in the PRP is adjusted to 300-350,000 PL/mm^3 by dilution with autologous PPP. The PRP is stored at the temperature of the room until the time of the test, and is used within 4 hours following withdrawal from the animal.
Platelet aggregation is carried out at 37° C. in siliconed glass tubes using an aggregometer. The PRP and the PL are stirred at 1000 rpm (revolutions per minute). In order to study the activity of thromboxane antagonists, the PRP is incubated for 1 min at 37° C., and the antagonist is then added for a period of 3 min before addition of the agonist U46619 (1.2 μM). The final volume in the measuring cell is then 250 μl. The intensity of platelet aggregation is established by taking the maximum amplitude of aggregation plots and is expressed as a percentage light transmission (% T). […]

[5] = system: platelets (aggregation induced by U46619); assay: Platelet aggregation in man (U46619-induced, PRP); type: cell-based; conditions: human PRP, procedure of Example 22 (U46619 1.2 μM), read-out: IC50 (50% inhibition of platelet aggregation induced by U46619)
Method: Platelet aggregation is carried out at 37° C. in siliconed glass tubes using an aggregometer. The PRP and the PL are stirred at 1000 rpm (revolutions per minute). In order to study the activity of thromboxane antagonists, the PRP is incubated for 1 min at 37° C., and the antagonist is then added for a period of 3 min before addition of the agonist U46619 (1.2 μM). The final volume in the measuring cell is then 250 μl. The intensity of platelet aggregation is established by taking the maximum amplitude of aggregation plots and is expressed as a percentage light transmission (% T). The activity of the antagonists is expressed as IC50, that is to say the concentration of the substance which induces a 50% inhibition of the aggregation response induced by U46619.
Platelet Aggregation in Man
Venous blood is obtained from human volunteers who have not taken aspirin for at least 14 days prior to the experiment. The blood is withdrawn onto sodium citrate (0.109M) (1 vol. of citrate to 9 vol. of blood). Platelet-rich plasma (PRP) is obtained after centrifugation (20° C.) at 200 g for 10 minutes. The number of platelets is 250,000 PL/mm^3 on average. The PRP is stored at the temperature of the room until the time of the test, and is used within 2 hours following withdrawal from the subject. The antagonists are tested according to the procedure described in Example 22.

SMILES | Kb [1] | IC50 [2] | ED50 [3] | IC50 [4] | IC50 [5]
O=C(O)CCC/C=C\CC1(CCNS(=O)(=O)c2ccc(Cl)cc2)CCCCC1 [Example 1, (5Z)-10-[(4-Chlorophenyl)sulfonamido]-8,8-pentamethylene-5-decenoic acid sodium salt] | 0.398 nM | 140 nM | 0.027 mg/kg |  | 
O=C(O)CC/C=C\CC1(CCNS(=O)(=O)c2ccc(Cl)cc2)CCCCC1 [Example 2, (4Z ) -9-[(4-Chlorophenyl)sulfonamido]-7 , 7-pentamethylene-4-nonenoic acid sodium salt] | 3.98 nM | 120 nM | 0.12 mg/kg | 200 nM | 200 nM
O=C(O)CC/C=C\CC1(CCNS(=O)(=O)c2ccc(Cl)cc2)CCCC1 [Example 3, (4Z)-9-[(4-Chlorophenyl)sulfonamido]-7,7-tetramethylene-4-nonenoic acid sodium salt] | 0.501 nM | 60 nM | 0.019 mg/kg |  | 80 nM
Cc1ccc(S(=O)(=O)NCCC2(C/C=C\CCCC(=O)O)CCCCC2)cc1 [Example 4, (5Z)-10-[(4-Methylphenyl)sulfonamido]-8,8-pentamethylene-5-decenoic acid sodium salt] | 3.16 nM | 200 nM | 0.105 mg/kg |  | 
O=C(O)CCC/C=C\CC1(CCNS(=O)(=O)c2ccc(Br)cc2)CCCCC1 [Example 5, (5Z)-10-[(4-Bromophenyl)sulfonamido]-8,8-pentamethylene-5-decenoic acid sodium salt] | 6.31 nM | 140 nM | 0.066 mg/kg |  | 
O=C(O)CC/C=C\CC1(CNS(=O)(=O)c2ccc(Cl)cc2)CCCC1 [Example 6, (4Z) -8-[(4-Chlorophenyl)sulfonamido]-7,7-tetramethylene-4-octenoic acid sodium salt] | 0.724 nM |  | 0.021 mg/kg | 200 nM | 80 nM
O=C(O)CC/C=C\CC1(CNS(=O)(=O)c2ccc(Cl)cc2)CCCCC1 [Example 7, (4Z)-8-[(4-Chlorophenyl)sulfonamido]-7,7-pentamethylene-4-octenoic acid sodium salt] | 0.398 nM |  | 0.02 mg/kg |  | 300 nM
O=C(O)CCC/C=C\CC1(CNS(=O)(=O)c2ccc(Cl)cc2)CCCC1 [Example 8, (5Z )-9-[(4-Chlorophenyl)sulfonamido]-8,8-tetramethylene-5-nonenoic acid sodium salt] | 0.234 nM |  | 0.007 mg/kg |  | 300 nM
O=C(O)CC/C=C\CCC1(CNS(=O)(=O)c2ccc(Cl)cc2)CCCC1 [Example 9, (4Z)-9-[(4-Chlorophenyl)sulfonamido]-8,8-tetramethylene-4-nonenoic acid sodium salt] | 0.832 nM |  | 0.011 mg/kg |  | 200 nM
O=C(O)CC/C=C\CCC1(NS(=O)(=O)c2ccc(Cl)cc2)CCCC1 [Example 10, (4Z)-8-[(4-Chlorophenyl)sulfonamido]-8,8-tetramethylene-4-octenoic acid sodium salt] | 22.4 nM |  |  |  | 
O=C(O)CCC/C=C\CCC1(NS(=O)(=O)c2ccc(Cl)cc2)CCCC1 [Example 11, (5Z)-9-[(4-Chlorophenyl)sulfonamido]-9,9-tetramethylene-5-nonenoic acid sodium salt] | 20 nM |  |  |  | 
O=C(O)CCC/C=C\CC1(CCNS(=O)(=O)c2ccc(Cl)cc2)CCCC1 [Example 12, (5Z)-10-[(4-Chlorophenyl)sulfonamido]-8,8-tetramethylene-5-decenoic acid sodium salt] | 1.05 nM | 150 nM | 0.009 mg/kg |  | 500 nM
O=C(O)CC/C=C\CCC1(CCNS(=O)(=O)c2ccc(Cl)cc2)CCCC1 [Example 14, (4Z )-10-[(4-Chlorophenyl)sulfonamido]-8,8-tetramethylene-4-decenoic acid sodium salt] |  |  |  |  | 800 nM
O=C(O)CC/C=C\CC1(CCNS(=O)(=O)c2ccc(Cl)cc2)CCc2ccccc21 (stereo not drawn) [sodium salt] | 3.98 nM |  |  |  | 
